Here are results for nine compounds from PubChem BioAssay (NCI).

Test systems include A498 renal; CCRF-CEM leukemia; EKVX NSCLC; HCT-15 colon; HL-60(TB) leukemia; HOP-92 NSCLC; M14 melanoma; MCF7 breast; MDA-N; MOLT-4 leukemia; NCI/ADR-RES ovarian; OVCAR-4 ovarian; PC-3 prostate; RPMI-8226 leukemia; SNB-75 CNS.
Holding throughout (assay): NCI anticancer screen, dose series, 48 h

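Each compound was tested at five concentrations against cells in 96-well plates for 48 hours. TGI denotes the concentration required for complete inhibition of growth.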 Where a SMILES comes first, the peptide text is derived from it. [ ]: non-standard residue; d: D form. The star is where a group is joined. ξ: configuration not given here. ξPhe(4-NO2) = NC(Cc1ccc([N+](=O)[O-])cc1)C(=O)O; Boc = CC(C)(C)OC(=O)*

Turning to `CN(/N=C/c1ccccc1C(=O)O)C1=NCCCCN1`, the TGI with A498 renal, in the assay with CCRF-CEM leukemia, in the assay on EKVX NSCLC, in the assay on HCT-15 colon, with HL-60(TB) leukemia and in the assay on HOP-92 NSCLC was more than 100 µM in each case. The TGI with M14 melanoma, with MCF7 breast, in the assay with MDA-N, with MOLT-4 leukemia, in the assay with NCI/ADR-RES ovarian and in the assay with OVCAR-4 ovarian was more than 100 µM throughout. For the same compound, the TGI in the assay with PC-3 prostate, in the assay on RPMI-8226 leukemia and in the assay with SNB-75 CNS was more than 100 µM throughout.
With `CCN(CCCl)c1cc(CN(C)C)cc(NC(=O)c2ccc(C(=O)Nc3ccccc3)cc2)c1`, the TGI with A498 renal amounted to 1.8 µM; with CCRF-CEM leukemia, 1.14 µM; in the assay on HCT-15 colon it was 4.53 µM; with HL-60(TB) leukemia it was 0.695 µM; in the assay with HOP-92 NSCLC it was 3.87 µM; with M14 melanoma it was 5.44 µM. Moreover, the TGI in the assay with MCF7 breast amounted to 2.79 µM; with MDA-N it was 0.925 µM; in the assay on MOLT-4 leukemia it was 1.78 µM; with NCI/ADR-RES ovarian, 11.4 µM; in the assay with OVCAR-4 ovarian, 1.87 µM; in the assay with PC-3 prostate, 1.56 µM. In addition, the TGI stood at 3.14 µM in the assay with RPMI-8226 leukemia and 4.13 µM in the assay on SNB-75 CNS.
Turning to `CCNC(=O)CNC(=O)C(Cc1ccc([N+](=O)[O-])cc1)NC(=O)OC(C)(C)C` (centres undefined) (Boc-[ξPhe(4-NO2)]-Gly-NHEt), the TGI in the assay on A498 renal, in the assay on CCRF-CEM leukemia, in the assay with EKVX NSCLC, in the assay with HCT-15 colon, in the assay on HL-60(TB) leukemia and with HOP-92 NSCLC was more than 100 µM throughout. Also, the TGI in the assay with M14 melanoma, in the assay with MCF7 breast, with MDA-N, with MOLT-4 leukemia, in the assay with NCI/ADR-RES ovarian and in the assay with OVCAR-4 ovarian was more than 100 µM each time. The TGI with PC-3 prostate, in the assay with RPMI-8226 leukemia and with SNB-75 CNS was more than 100 µM throughout.
Consider `CNC(=O)OCC1=C(COC(=O)NC)C(C)N(c2ccccc2)C1` (centres undefined), for which the TGI in the assay on A498 renal is 7.51 µM; with CCRF-CEM leukemia it was more than 100 µM; in the assay with EKVX NSCLC, more than 100 µM; with HCT-15 colon, more than 100 µM; in the assay on HL-60(TB) leukemia, 47 µM; in the assay with HOP-92 NSCLC it was more than 100 µM. Further, the TGI with M14 melanoma is 65.8 µM; in the assay with MCF7 breast, 58.3 µM; in the assay on MDA-N, more than 100 µM; in the assay with MOLT-4 leukemia it was 71.1 µM; in the assay on NCI/ADR-RES ovarian, more than 100 µM; in the assay on OVCAR-4 ovarian, more than 100 µM. The TGI with PC-3 prostate was more than 100 µM; with RPMI-8226 leukemia, 83 µM; with SNB-75 CNS it was 94.5 µM.
As to `COc1cc(C2SCC(=O)N2NC(=O)c2ccc(NC(C)=O)cc2OC)ccc1O` (centres undefined), the TGI in the assay with A498 renal was more than 100 µM; in the assay on CCRF-CEM leukemia it was more than 100 µM; in the assay with EKVX NSCLC it was more than 100 µM; in the assay on HCT-15 colon, more than 100 µM; with HL-60(TB) leukemia it was more than 100 µM; with HOP-92 NSCLC, 73.9 µM. The TGI with M14 melanoma, in the assay on MCF7 breast, with MDA-N, with MOLT-4 leukemia, with NCI/ADR-RES ovarian and in the assay on OVCAR-4 ovarian was more than 100 µM each time. Also, the TGI is more than 100 µM with PC-3 prostate, more than 100 µM with RPMI-8226 leukemia and 46.7 µM in the assay on SNB-75 CNS.
Turning to `Nc1nc(Cl)c(C=O)c(NCC2(CO)CCC2)n1`, the TGI with A498 renal was 67.7 µM; in the assay with CCRF-CEM leukemia, 34.1 µM; in the assay on EKVX NSCLC it was 46.9 µM; in the assay on HCT-15 colon it was 25.3 µM; in the assay with HL-60(TB) leukemia, 22.3 µM; in the assay with HOP-92 NSCLC, 31.1 µM. The TGI in the assay with M14 melanoma is more than 100 µM; in the assay with MCF7 breast it was more than 100 µM; in the assay with MDA-N it was 77 µM; in the assay on MOLT-4 leukemia, 65.5 µM; in the assay with NCI/ADR-RES ovarian it was more than 100 µM; in the assay with OVCAR-4 ovarian, 32.9 µM. Further, the TGI with PC-3 prostate was 34.6 µM; in the assay with RPMI-8226 leukemia it was more than 100 µM; with SNB-75 CNS, 67.7 µM.
As for `FC(F)(F)C1(c2ccccc2)SCc2nc3ccccc3n21` (centres undefined), the TGI in the assay on A498 renal, in the assay on CCRF-CEM leukemia, in the assay on EKVX NSCLC, in the assay on HCT-15 colon, in the assay on HL-60(TB) leukemia and in the assay on HOP-92 NSCLC was more than 100 µM in each case. Further, the TGI in the assay on M14 melanoma, with MCF7 breast, in the assay on MDA-N, in the assay with MOLT-4 leukemia, with NCI/ADR-RES ovarian and with OVCAR-4 ovarian was more than 100 µM throughout. Also, the TGI with PC-3 prostate, in the assay with RPMI-8226 leukemia and in the assay with SNB-75 CNS was more than 100 µM in each case.
Consider `COc1ccc2c(c1)OC1c3ccccc3OCC21` (centres undefined), for which the TGI with A498 renal, in the assay with CCRF-CEM leukemia, with EKVX NSCLC, in the assay on HCT-15 colon, in the assay with HL-60(TB) leukemia and in the assay with HOP-92 NSCLC was more than 100 µM each time. The TGI with M14 melanoma is more than 100 µM; in the assay on MCF7 breast, more than 100 µM; in the assay with MDA-N it was more than 100 µM; in the assay on MOLT-4 leukemia it was 81.9 µM; with NCI/ADR-RES ovarian, more than 100 µM; in the assay on OVCAR-4 ovarian, more than 100 µM. Also, the TGI in the assay with PC-3 prostate, in the assay on RPMI-8226 leukemia and with SNB-75 CNS was more than 100 µM throughout.
Take `CCOc1cc(/C=C2\N=C(c3ccccc3)N(c3nc4ccccc4s3)C2=O)ccc1O`: the TGI in the assay with A498 renal is more than 100 µM; in the assay on CCRF-CEM leukemia, more than 100 µM; in the assay with EKVX NSCLC, more than 100 µM; in the assay on HCT-15 colon it was 82.5 µM; in the assay on HL-60(TB) leukemia, 73.9 µM; with HOP-92 NSCLC, more than 100 µM. Also, the TGI with M14 melanoma is more than 100 µM; in the assay on MCF7 breast, more than 100 µM; with MDA-N, more than 100 µM; with MOLT-4 leukemia, 58.9 µM; in the assay with NCI/ADR-RES ovarian it was 67.8 µM; with OVCAR-4 ovarian, more than 100 µM. Besides, the TGI with PC-3 prostate is 79.4 µM; in the assay with RPMI-8226 leukemia, 65.4 µM; with SNB-75 CNS it was more than 100 µM.
